Test results: patent publication US10131652B2, “Pyrimidinyloxy benzene derivatives as herbicides” (E. I. DU PONT DE NEMOURS AND COMPANY, priority 2014, dated 2018)
Like-named read-outs stand apart in the source and are kept apart here.

Tests used:
Assay type in all cases: in vivo
[1] = test system: wild poinsettia (Euphorbia heterophylla); assay: Test F pre-/postemergence plant response; details: scale 0 to 100; for pest or weed control at 8 g/ha / pest or weed control at 16 g/ha / pest or weed control at 31 g/ha / pest or weed control at 62 g/ha / pest or weed control at 125 g/ha: Euphorbia heterophylla, read-out: Plant response rating, Poinsettia, Wild
Description: (§1) Seeds of plant species selected from corn (Zea mays), soybean (Glycine max), velvetleaf (Abutilon theophrasti), lambsquarters (Chenopodium album), wild poinsettia (Euphorbia heterophylla), palmer pigweed (Amaranthus palmeri), waterhemp (common waterhemp, Amaranthus rudis), surinam grass (Brachiaria decumbens), large (Lg) crabgrass (Digitaria sanguinalis), Brazilian crabgrass (Digitaria horizontalis), fall panicum (Panicum dichotomiflorum), giant foxtail (Setaria faberii), green foxtail (Setaria viridis), goosegrass (Eleusine indica), johnsongrass (Sorghum halepense), ragweed (common ragweed, Ambrosia elatior), barnyardgrass (Echinochloa crus-galli), sandbur (southern sandbur, Cenchrus echinatus), arrowleaf sida (Sida rhombifolia), Italian ryegrass (Lolium multiflorum), dayflower (Virginia (VA) dayflower, Commelina virginica), field bindweed (Convolvulus arvensis), cocklebur (common cocklebur, Xanthium strumarium), momingglory (Ipomoea coccinea), nightshade (eastern black nightshade, Solanum ptycanthum), kochia (Kochia scoparia), yellow nutsedge (Cyperus esculentus), and hairy beggarticks (Bidens pilosa), were planted into a silt loam soil and treated preemergence with test chemicals formulated in a non-phytotoxic solvent mixture which included a surfactant.
(§2) At the same time, plants from these crop and weed species and also waterhemp_RES1, (ALS & Triazine resistant common waterhemp, Amaranthus rudis), and waterhemp_RES2, (ALS & HPPD resistant common waterhemp, Amaranthus rudis) were treated with postemergence applications of test chemicals formulated in the same manner. Plants ranged in height from 2 to 18 cm for postemergence treatments (1- to 4-leaf stage).
(§3) Treated plants and controls were maintained in a greenhouse for 14 to 21 days, after which time all species were compared to controls and visually evaluated. Plant response ratings, summarized in Table F, are based on a scale of 0 to 100 where 0 is no effect and 100 is complete control. A dash (-) response means no test result.

[2] = test system: Brazilian crabgrass (Digitaria horizontalis); assay: Test F pre-/postemergence plant response; details: scale 0 to 100; for pest or weed control at 8 g/ha / pest or weed control at 16 g/ha / pest or weed control at 31 g/ha / pest or weed control at 62 g/ha / pest or weed control at 125 g/ha: Digitaria horizontalis, read-out: Plant response rating, Crabgrass, Brazil
Description: as §1, §2, §3

kochia (Kochia scoparia) = assay: Test B pre-/postemergence plant response
Procedure, shortened: (§4)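 Visual injury rating, 0 (no effect) to 100 (complete control), vs untreated controls after ~10 d greenhouse. Pre: directed soil spray after planting in loam/sand. Post: plants 2–10 cm, 1–2 leaf stage. Compound in non-phytotoxic solvent plus surfactant.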

[3] = test system: ragweed (common ragweed, Ambrosia elatior); assay: Test B pre-/postemergence plant response
Procedure, shortened: as §4

[4] = test system: Italian ryegrass (Lolium multiflorum); assay: Test B pre-/postemergence plant response
Procedure, shortened: as §4

[5] = test system: galium (catchweed bedstraw, Galium aparine); assay: Test B postemergence plant response
Procedure, shortened: (§5)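 Plants grown in pots of loam soil–sand blend were sprayed postemergence with formulated test chemicals at 2 to 10 cm height, one- to two-leaf stage. After about 10 days in a greenhouse, injury was visually rated against untreated controls on a 0 to 100 scale (0 no effect, 100 complete control).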

[6] = test system: blackgrass (Alopecurus myosuroides); assay: Test B postemergence plant response
Procedure, shortened: as §5

[7] = test system: waterhemp_RES2 (ALS & HPPD resistant common waterhemp, Amaranthus rudis); assay: Test F postemergence plant response; details: scale 0 to 100
Procedure, shortened: (§6)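 Postemergence application to plants 2–18 cm tall (1- to 4-leaf stage), then held in greenhouse 14–21 days. Visual rating against untreated controls on a 0–100 scale (0 no effect, 100 complete control).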

[8] = test system: waterhemp_RES1 (ALS & Triazine resistant common waterhemp, Amaranthus rudis); assay: Test F postemergence plant response; details: scale 0 to 100
Procedure, shortened: as §6

[9] = 31 g ai/ha, Preemergence, 0 to 100 scale where 0 is no effect and 100 is complete control
[10] = 125 g ai/ha, postemergence, 0 to 100 scale, 0 no effect, 100 complete control
[11] = Postemergence, 31 g ai/ha, 0 to 100 scale (0 no effect, 100 complete control)
[12] = Preemergence, 125 g ai/ha, 0 to 100 scale (0 no effect, 100 complete control)
[13] = post-emergence, 8 g ai/ha Postemergence
[14] = post-emergence, 16 g ai/ha Postemergence
[15] = post-emergence, 31 g ai/ha Postemergence
[16] = post-emergence, 62 g ai/ha Postemergence
[17] = post-emergence, 125 g ai/ha Postemergence
[18] = pre-emergence, 8 g ai/ha Preemergence
[19] = pre-emergence, 16 g ai/ha Preemergence
[20] = pre-emergence, 31 g ai/ha Preemergence
[21] = pre-emergence, 125 g ai/ha Preemergence
[22] = Postemergence, 500 g ai/ha, 0 to 100 scale (0 no effect, 100 complete control)
[23] = Preemergence, 125 g ai/ha, 0 to 100 scale where 0 is no effect and 100 is complete control
[24] = Preemergence, 500 g ai/ha, 0 to 100 scale where 0 is no effect and 100 is complete control

## FC(F)c1cc(-c2ccccc2Oc2ncc(Br)cn2)on1 [Compound 212]
[1]; 16 g ai/ha Postemergence
  Plant response rating, Poinsettia, Wild: 35
[1]; 31 g ai/ha Postemergence
  Plant response rating, Poinsettia, Wild: 40
[1]; 62 g ai/ha Postemergence
  Plant response rating, Poinsettia, Wild: 50
[1]; 125 g ai/ha Postemergence
  Plant response rating, Poinsettia, Wild: 60
[2]; 16 g ai/ha Postemergence
  Plant response rating, Crabgrass, Brazil: 20
[2]; 31 g ai/ha Postemergence
  Plant response rating, Crabgrass, Brazil: 30
[2]; 62 g ai/ha Postemergence
  Plant response rating, Crabgrass, Brazil: 30
[2]; 125 g ai/ha Postemergence
  Plant response rating, Crabgrass, Brazil: 35
Kochia (Kochia scoparia); [9]
  Plant response rating, Kochia: 40
Kochia (Kochia scoparia); [10]
  Plant response rating, Kochia: 100
Kochia (Kochia scoparia); [11]
  Plant response rating, Kochia: 90
Kochia (Kochia scoparia); [12]
  Kochia plant response rating: 90
[3]; [9]
  Plant response rating, Ragweed: 0
[3]; [10]
  Plant response rating, Ragweed: 60
[3]; [11]
  Plant response rating, Ragweed: 20
[3]; [12]
  Ragweed plant response rating: 40
[4]; [9]
  Plant response rating, Ryegrass, Italian: 0
[4]; [10]
  Plant response rating, Ryegrass, Italian: 20
[4]; [11]
  Plant response rating, Ryegrass, Italian: 0
[4]; [12]
  Ryegrass, Italian plant response rating: 40
[5]; [10]
  Plant response rating, Galium: 100
[5]; [11]
  Plant response rating, Galium: 60
[6]; [10]
  Plant response rating, Blackgrass: 50
[6]; [11]
  Plant response rating, Blackgrass: 10
[7]; 16 g ai/ha Postemergence
  Plant response rating, Waterhemp_RES2: 70
[7]; 31 g ai/ha Postemergence
  Plant response rating, Waterhemp_RES2: 95
[7]; 62 g ai/ha Postemergence
  Plant response rating, Waterhemp_RES2: 98
[7]; 125 g ai/ha Postemergence
  Plant response rating, Waterhemp_RES2: 100
[8]; 16 g ai/ha Postemergence
  Plant response rating, Waterhemp_RES1: 70
[8]; 31 g ai/ha Postemergence
  Plant response rating, Waterhemp_RES1: 80
[8]; 62 g ai/ha Postemergence
  Plant response rating, Waterhemp_RES1: 95
[8]; 125 g ai/ha Postemergence
  Plant response rating, Waterhemp_RES1: 98

## FC(F)c1cc(-c2ccccc2Oc2ncc(Cl)cn2)on1 [Compound 53, 5-chloro-2-[2-[3-(difluoromethyl)-5-isoxazolyl]phenoxy]pyrimidine]
[1]; [13]
  pest or weed control at 8 g/ha: 50%
[1]; [14]
  pest or weed control at 16 g/ha: 50%
[1]; [15]
  pest or weed control at 31 g/ha: 60%
[1]; [16]
  pest or weed control at 62 g/ha: 70%
[1]; [17]
  pest or weed control at 125 g/ha: 70%
[1]; [18]
  pest or weed control at 8 g/ha: 0%
[1]; [19]
  pest or weed control at 16 g/ha: 0%
[1]; [20]
  pest or weed control at 31 g/ha: 0%
[1]; [21]
  pest or weed control at 125 g/ha: 0%
[1]; pre-emergence, Preemergence
  pest or weed control at 62 g/ha: 0%
[2]; [13]
  pest or weed control at 8 g/ha: 0%
[2]; [14]
  pest or weed control at 16 g/ha: 10%
[2]; [15]
  pest or weed control at 31 g/ha: 15%
[2]; [16]
  pest or weed control at 62 g/ha: 20%
[2]; [17]
  pest or weed control at 125 g/ha: 20%
[2]; [18]
  pest or weed control at 8 g/ha: 0%
[2]; [19]
  pest or weed control at 16 g/ha: 0%
[2]; [20]
  pest or weed control at 31 g/ha: 5%
[2]; pre-emergence, 62 g ai/ha Preemergence
  pest or weed control at 62 g/ha: 85%
[2]; [21]
  pest or weed control at 125 g/ha: 90%
Kochia (Kochia scoparia); [10]
  Plant response rating, Kochia: 100
Kochia (Kochia scoparia); [22]
  Plant response rating, Kochia: 100
Kochia (Kochia scoparia); [23]
  Plant response rating, Kochia: 100
Kochia (Kochia scoparia); [24]
  Plant response rating, Kochia: 100
[3]; [10]
  Plant response rating, Ragweed: 60
[3]; [22]
  Plant response rating, Ragweed: 90
[3]; [23]
  Plant response rating, Ragweed: 10
[3]; [24]
  Plant response rating, Ragweed: 50
[4]; [10]
  Plant response rating, Ryegrass, Italian: 80
[4]; [22]
  Plant response rating, Ryegrass, Italian: 100
[4]; [23]
  Plant response rating, Ryegrass, Italian: 10
[4]; [24]
  Plant response rating, Ryegrass, Italian: 40
[5]; [10]
  Plant response rating, Galium: 100
[5]; [22]
  Plant response rating, Galium: 100
[6]; [10]
  Plant response rating, Blackgrass: 100
[6]; [22]
  Plant response rating, Blackgrass: 100
[7]; 8 g ai/ha Postemergence
  Plant response rating, Waterhemp_RES2: 70
[7]; 16 g ai/ha Postemergence
  Plant response rating, Waterhemp_RES2: 80
[7]; 31 g ai/ha Postemergence
  Plant response rating, Waterhemp_RES2: 90
[7]; 62 g ai/ha Postemergence
  Plant response rating, Waterhemp_RES2: 100
[7]; 125 g ai/ha Postemergence
  Plant response rating, Waterhemp_RES2: 100
[8]; 8 g ai/ha Postemergence
  Plant response rating, Waterhemp_RES1: 70
[8]; 16 g ai/ha Postemergence
  Plant response rating, Waterhemp_RES1: 85
[8]; 31 g ai/ha Postemergence
  Plant response rating, Waterhemp_RES1: 90
[8]; 62 g ai/ha Postemergence
  Plant response rating, Waterhemp_RES1: 95
[8]; 125 g ai/ha Postemergence
  Plant response rating, Waterhemp_RES1: 100
